From article PMC8857485, “Prostate secretory protein 94 inhibits sterol binding and export by the mammalian CAP protein CRISP2 in a calcium-sensitive manner” (The Journal of Biological Chemistry, 2022)

Key:
CRISP2 = molecular target: T1, CRISP2 (Homo sapiens, UniProt P16562); assay: MST binding to CRISP2; set-up: species or system mammalian; conditions: calcium chloride titration, read-out: Kd, calcium binding by CRISP2
T1 construct: made in house; host or cells: E. coli BL21
T1 sequence (P16562 22-243): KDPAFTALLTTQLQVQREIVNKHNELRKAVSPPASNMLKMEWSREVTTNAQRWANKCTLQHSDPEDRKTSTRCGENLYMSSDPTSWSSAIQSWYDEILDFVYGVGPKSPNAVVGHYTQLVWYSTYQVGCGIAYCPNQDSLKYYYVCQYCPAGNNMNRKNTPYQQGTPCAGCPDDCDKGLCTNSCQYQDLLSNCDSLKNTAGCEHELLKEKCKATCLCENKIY
From the text: To confirm the direct interaction of PSP94 with CRISP3 and to test whether PSP94 would also bind other CAP family members such as yeast Pry1, or CRISP2, we performed in vitro protein binding assay using microscale thermophoresis (MST). Therefore, PSP94 and the CAP family members, Pry1, CRISP2, and CRISP3, were expressed as fusion proteins with a C-terminal polyhistidine tag in Escherichia coli, and the proteins were affinity purified on nickel-NTA agarose beads. The purified CAP proteins were then fluorescently labeled using RED-tris-NTA and incubated with varying concentrations of PSP94. […] PSP94 thus has high binding affinity for all three CAP proteins tested, and it also binds the CAP domain of Pry1 (Pry1^CAP) alone.
DNA encoding proteins of interest were PCR amplified and cloned into NcoI and XhoI restriction sites of pET22b, which contains a PelB signal sequence to direct the secretion of expressed protein into the periplasmic space. Plasmids were transformed into E. coli BL21, and proteins were expressed with a C-terminal polyhistidine tag. Different induction strategies were used: overnight induction with lactose at 24 °C for Pry1, CRISP2, and PSP94 and 6 h of induction with 0.4 mM IPTG at 24 °C for the CAP domain of Pry1. Cells were collected and lysed, and the soluble cell lysate was incubated with nickel-nitrilotriacetic acid beads as per the manufacturer instructions (Qiagen). Beads were washed and loaded onto a Ni^2+-NTA column, and proteins were eluted with a buffer containing 60 mM NaH2PO4, 300 mM NaCl, and 300 mM imidazole, pH 8.0. […] Protein concentration was determined by Lowry assay using the Folin reagent and bovine serum albumin as protein standard.
MST experiments were performed to assess protein–protein, protein–lipid, and protein–calcium interactions using a Monolith NT.115 (Nanotemper Technologies). […] The dissociation constant Kd was obtained by plotting the normalized fluorescence (Fnorm) against the logarithm of ligand concentration. […]

PSP94 = molecular target: T2, PSP94 (Homo sapiens, UniProt P08118); assay: MST binding to PSP94; conditions: calcium chloride titration
T2 construct: made in house; host or cells: E. coli BL21
T2 sequence (P08118 21-114): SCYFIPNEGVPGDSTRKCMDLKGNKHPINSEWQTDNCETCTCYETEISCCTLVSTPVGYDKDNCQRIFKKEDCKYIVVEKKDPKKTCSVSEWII
Protocol: To test whether the interaction between PSP94 and CAP family members affects their sterol binding in vitro, we performed ligand binding assays using a more water-soluble cholesterol derivative, cholesterol sulfate. […] In the presence of an equimolar concentration of PSP94, however, sterol binding by the CAP proteins was blocked (Fig. 3B).
MST experiments were performed to assess protein–protein, protein–lipid, and protein–calcium interactions using a Monolith NT.115 (Nanotemper Technologies). Proteins were labeled using the RED-tris-NTA His tag protein labeling kit. Labeled CAP proteins, 100 nM, were mixed with a serial dilution of unlabeled PSP94, PSP9^F24G, cholesterol sulfate, or calcium chloride, prepared in binding buffer (20 mM Tris pH 7.5, 30 mM NaCl, 0.05% Triton X-100). Samples were loaded into MST standard capillaries, and MST measurements were performed using an 80% laser power setting. The dissociation constant Kd was obtained by plotting the normalized fluorescence (Fnorm) against the logarithm of ligand concentration. Experiments were performed in triplicates, and data were fitted using the Kd model of the MO.Affinity Analysis software (Nanotemper Technologies). For binding inhibition studies, CAP proteins and PSP94 were preincubated for 5 min at 24 °C before performing binding studies with cholesterol sulfate.

[1] = tested on: sterol export by CAP proteins (Pry1, CRISP2, CRISP3); assay: In vivo sterol export assay ([14C]cholesteryl acetate export) in yeast; type: cell-based, Saccharomyces cerevisiae; conditions: 10 mM calcium in medium, cells expressing CRISP2 and PSP94
From the text: To test whether expression of PSP94 would affect the function of Pry1 in sterol export, we expressed PSP94 fused to the N-terminal signal sequence from Pry1 (amino acids 1–19) from a constitutive alcohol dehydrogenase promoter (ADH1) to direct the protein into the yeast secretory pathway. This PSP94-containing plasmid was then transformed into heme-deficient yeast cells lacking the sterol deacetylase Say1 (hem1Δ say1Δ). This strain is able to take up radiolabeled [^14C]cholesterol, acetylate it in an alcohol acetyltransferase 2 (Atf2)-dependent pathway, and secrete the resulting radiolabeled cholesteryl acetate back into the culture medium ([29]). […] To test whether expression of PSP94 would affect the synthesis or secretion of Pry1, CRISP2, or CRISP3, we coexpressed FLAG-tagged PSP94 with hemagglutinin (HA)-tagged Pry1, CRISP2, or CRISP3, separated yeast cells from the culture medium, precipitated proteins from both fractions with trichloroacetic acid (TCA), and detected the tagged proteins by Western blotting.
The sterol export assay was performed as described ([29]). […] Extracted radiolabeled lipids were quantified by scintillation counting, and volumes corresponding to 10,000 cpm (counts per minute) were dried. […] TLC plates were then exposed to phosphorimager screens, and radiolabeled lipids were visualized and quantified using a phosphorimager. […]

[2] = molecular target: T3, CRISP2–PSP94 heteromeric complex (Homo sapiens, UniProt P16562); assay: Coimmunoprecipitation of PSP94-FLAG with CRISP2-HA from culture medium; type: cell-based, Saccharomyces cerevisiae
T3 construct: expressed in transfected cells; host or cells: Saccharomyces cerevisiae, plasmids pRS416 (CRISP2) and pRS414 (PSP94), ADH1 promoter
Protocol: To test whether calcium also affects the formation of the heteromeric complex in vivo, we analyzed complex formation by coimmunoprecipitation. Cells expressing CRISP2-HA and PSP94-FLAG were cultivated in the absence or presence of calcium (5 and 10 mM CaCl2), CRISP2-HA was immunoprecipitated from the culture medium, and Western blots were probed for the presence of PSP94-FLAG.
For Coimmunoprecipitation analysis, CRISP2 wildtype and mutant versions were tagged with an HA epitope tag, and wildtype PSP94 and the PSP94^F24G mutant version were fused to a FLAG tag. Yeast strains expressing these proteins were grown overnight and collected by centrifugation. The cell pellet was resuspended in lysis buffer (50 mM Tris-HCl pH 7.5, 100 mM NaCl, 0.1% NP-40, 10% glycerol, protease inhibitor, and 1 mM PMSF), and cells were broken with glass beads in a Precellys homogenizer. The culture medium was concentrated using size-exclusion protein concentrator spin columns (3K MWCO, Pierce, Thermo Scientific). Protein concentration was estimated by Bradford assay (Bio-Rad), and both the cell lysate and concentrated culture medium were incubated overnight at 4 °C with anti-HA magnetic beads (Pierce, Thermo Scientific). […] Samples were denatured for 10 min at 95 °C and analyzed by SDS-PAGE and Western blotting. […]

`[Ca+2]` [calcium, calcium chloride] was tested, and the Kd (CRISP2) was 52 ± 0.9 nM, the Kd (PSP94) was 376 ± 1.7 µM and the “effect on sterol export by CRISP2 in the presence of PSP94” value [1] was “restored sterol binding and export by CRISP2”. The “complex formation between CRISP2 and PSP94” value ([2]; cells grown in 5 mM calcium) was “reduced” and the “complex formation between CRISP2 and PSP94” value ([2]; cells grown in 10 mM calcium) was “could no longer be detected”.
